Values quoted from earlier work in patent US20030119753A1, “Novel ascorbic acid compounds, methods of synthesis and application use thereof” (priority 2001, published 2003).

Conditions: relative to ascorbic acid

more stable than ascorbic acid: 20 times
Compound: O=C1O[C@H]([C@@H](O)CO)C(O)=C1OS(=O)(=O)O [L-ascorbate 2-sulphate]
